# Experimental data published in PubChem BioAssay AID2060500 (Molecular Pharmacology Branch, DTP, NCI, 2025).
# System: 596521-263-R-J1-PDC complex spheroids, viability % of control
# Assay: Anticancer human tumor 596521-263-R-J1-PDC patient-derived soft tissue sarcoma cell line growth inhibition [GQUAD]
# Conditions: for IC50: curve of first compound; for viability, T/C: stronger effect = lower value
# From the text: DNA G-quadruplex Stabilizer Agents in Combinations in Complex Spheroids
# A high-throughput screen of multi-cell type tumor spheroids was designed to identify active combinations of DNA G-quadruplex stabilizer agents and targeted small molecules. Complex spheroids include a stromal component modeled by human endothelial cells (HUVEC) and fibroblasts modeled by human mesenchymal stem cells (MSCs). The concentration ranges selected for each drug and investigational agent were based upon clinically achievable concentrations if the clinical Cmax of the agent was known.
# Compounds. The drugs and investigational agents: pidnarulex (CX-5461; NSC782164), APTO-253 (NSC789042), BRACO-19 (NSC847499), peposertib (NSC802822), ceralasertib (NSC780249), elimusertib (NSC800525), camonsertib (NSC841442), AZD-1390 (NSC803789), olaparib (NSC753686), talazoparib (NSC767125), ART-558 (NSC835418), sotorasib (NSC818433), MRTX-1133 (NSC836407), SN-38 (NSC673596), topotecan (NSC609699), etoposide (NSC141540), doxorubicin (NSC123127), gemcitabine (NSC613327), 5-fluorouracil (NSC19893), paclitaxel (NSC125973), vemurafenib (NSC761431), panobinostat (NSC761190), R-306465 (JNJ-16241199; NSC773264), adavosertib (NSC754352), TP-3654 (NSC805149), carboplatin (NSC241240), KSQ-4279 (NSC840948), and staurosporine (NSC755774) were obtained from the National Cancer Institute (NCI) Developmental Therapeutics Program Chemical Repository (34). The FDA-approved anticancer drug set is available from the NCI Developmental Therapeutics Program. […] The stock solutions were prepared in dimethyl sulfoxide (DMSO, Sigma-Aldrich, St. Louis, MO, cat. D2650) at 800-fold the tested concentration and stored at -70 degrees C prior to their use. All drugs and investigational agents were tested over a range starting from a high concentration at or near the clinical Cmax and decreasing in half-log increments. If the clinical Cmax for an agent had not been determined, the highest concentration tested was 10 microM.
# 2.3 Cell Culture. All cells were maintained in an incubator at 37 degrees C and 5% CO2 with 95% humidity. The PDC lines were cultured according to standard operating procedures established by the NCI PDMR. All PDCs were thawed and cultured in Matrigel-coated flasks prepared with a working solution of 1X Ham's F-12 nutrient mix, without supplementation (Invitrogen, cat. 11765054), 100 U/mL penicillin-streptomycin (Invitrogen, cat. 15140122), and 2.5% Matrigel (Corning Inc., cat. 354248) for the first three passages. The 857933-349-R-J2-PDC line was cultured in 6C/Colon 1B media, which includes advanced DMEM/F-12 (Thermo Fisher Scientific, cat. 12634028), 10 mM HEPES (Thermo Fisher Scientific, cat. 15630080), 1X GlutaMAX supplement (Thermo Fisher Scientific, cat. 35050061), 0.1 mg/mL primocin (InvivoGen, cat. ant-pm-2), 10% defined fetal bovine serum, heat inactivated (HyClone Laboratories Inc., cat. SH30070.03HI), 50% L-WRN conditioned media (ATCC, cat. CRL-3276), 1.25 mM N-Acetyl-L-cysteine (Sigma-Aldrich, cat. A9165), 10 mM nicotinamide (Sigma-Aldrich, cat. N0636), 1X B-27 supplement (Thermo Fisher Scientific, cat. 17504044), 1X N-2 supplement (Thermo Fisher Scientific, cat. 17502048), 10 microM Y-27632 dihydrochloride (Tocris Bioscience, cat. 1254), and 50 ng/mL human EGF recombinant protein (Thermo Fisher Scientific, cat. PHG0311). The 485176-168-R4-J1-PDC line was cultured in Panc media, which includes all 6C/Colon 1B media components plus 100 ng/mL human FGF-10 (Thermo Fisher Scientific, cat. 100-26), 500 nM SB-431542 (Selleckchem, cat. S1067), and gastrin (Tocris, cat. 3006).
# […]
# [1] = second compound 0.0316 µM, first compound 0.0316 µM
# [2] = second compound 0.0316 µM, first compound 0.316 µM
# [3] = second compound 0.1 µM, first compound 0.0316 µM
# [4] = second compound 0.1 µM, first compound 0.316 µM
# [5] = second compound 0.316 µM, first compound 0.0316 µM
# [6] = second compound 0.316 µM, first compound 0.316 µM
# [7] = second compound 1 µM, first compound 0.0316 µM
# [8] = second compound 1 µM, first compound 0.316 µM
# [9] = second compound 3.16 µM, first compound 0.0316 µM
# [10] = second compound 3.16 µM, first compound 0.316 µM
# [11] = second compound 10 µM, first compound 0.0316 µM
# [12] = second compound 10 µM, first compound 0.316 µM
# 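Further: spheroids exposed to drugs for 7 days before viability reading.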
compound,measurement,setting,value
CC1COCCN1c1cc(C2(O)CC3CCC(C2)O3)c2cnn(-c3ccn[nH]3)c2n1 (centres undefined) + CN(C)c1ccc(Nc2c3ccc(NC(=O)CCN4CCCC4)cc3nc3cc(NC(=O)CCN4CCCC4)ccc23)cc1,IC50,second compound 0.0316 µM,134 nM
same,IC50,second compound 0.1 µM,221 nM
same,IC50,second compound 0.316 µM,148 nM
same,IC50,second compound 1 µM,162 nM
same,IC50,second compound 3.16 µM,112 nM
same,IC50,second compound 10 µM,66.4 nM
same,"viability, T/C",[1],72.6%
same,"viability, T/C","second compound 0.0316 µM, first compound 0.1 µM",48.7%
same,"viability, T/C",[2],40.9%
same,"viability, T/C","second compound 0.0316 µM, first compound 1 µM",29.4%
same,"viability, T/C","second compound 0.0316 µM, first compound 3.16 µM",24.3%
same,"viability, T/C","second compound 0.0316 µM, first compound 10 µM",12.3%
same,"viability, T/C",[3],70.3%
same,"viability, T/C","second compound 0.1 µM, first compound 0.1 µM",56.9%
same,"viability, T/C",[4],48.3%
same,"viability, T/C","second compound 0.1 µM, first compound 1 µM",32.6%
same,"viability, T/C","second compound 0.1 µM, first compound 3.16 µM",22.8%
same,"viability, T/C","second compound 0.1 µM, first compound 10 µM",13.6%
same,"viability, T/C",[5],66.3%
same,"viability, T/C","second compound 0.316 µM, first compound 0.1 µM",48.8%
same,"viability, T/C",[6],47.3%
same,"viability, T/C","second compound 0.316 µM, first compound 1 µM",31.9%
same,"viability, T/C","second compound 0.316 µM, first compound 3.16 µM",20.4%
same,"viability, T/C","second compound 0.316 µM, first compound 10 µM",13.2%
same,"viability, T/C",[7],69.6%
same,"viability, T/C","second compound 1 µM, first compound 0.1 µM",50.3%
same,"viability, T/C",[8],46.6%
same,"viability, T/C","second compound 1 µM, first compound 1 µM",31.1%
same,"viability, T/C","second compound 1 µM, first compound 3.16 µM",24.7%
same,"viability, T/C","second compound 1 µM, first compound 10 µM",14.3%
same,"viability, T/C",[9],58.5%
same,"viability, T/C","second compound 3.16 µM, first compound 0.1 µM",51.2%
same,"viability, T/C",[10],40.5%
same,"viability, T/C","second compound 3.16 µM, first compound 1 µM",35.2%
same,"viability, T/C","second compound 3.16 µM, first compound 3.16 µM",23.9%
same,"viability, T/C","second compound 3.16 µM, first compound 10 µM",15.6%
same,"viability, T/C",[11],61.7%
same,"viability, T/C","second compound 10 µM, first compound 0.1 µM",39%
same,"viability, T/C",[12],36.8%
same,"viability, T/C","second compound 10 µM, first compound 1 µM",28.2%
same,"viability, T/C","second compound 10 µM, first compound 3.16 µM",21.6%
same,"viability, T/C","second compound 10 µM, first compound 10 µM",14.8%
CC[C@@]1(O)C(=O)OCc2c1cc1n(c2=O)Cc2cc3c(CN(C)C)c(O)ccc3nc2-1 + CN(C)c1ccc(Nc2c3ccc(NC(=O)CCN4CCCC4)cc3nc3cc(NC(=O)CCN4CCCC4)ccc23)cc1,IC50,second compound 0.0316 µM,> 316 nM
same,IC50,second compound 0.1 µM,161 nM
same,IC50,second compound 0.316 µM,> 316 nM
same,IC50,second compound 1 µM,> 316 nM
same,IC50,second compound 3.16 µM,> 316 nM
same,IC50,second compound 10 µM,76.9 nM
same,"viability, T/C","second compound 0.0316 µM, first compound 0.000999 µM",99.7%
same,"viability, T/C","second compound 0.0316 µM, first compound 0.00316 µM",108%
same,"viability, T/C","second compound 0.0316 µM, first compound 0.00999 µM",91.9%
same,"viability, T/C",[1],62.4%
same,"viability, T/C","second compound 0.0316 µM, first compound 0.0999 µM",63.8%
same,"viability, T/C",[2],53.2%
same,"viability, T/C","second compound 0.1 µM, first compound 0.000999 µM",114%
same,"viability, T/C","second compound 0.1 µM, first compound 0.00316 µM",105%
same,"viability, T/C","second compound 0.1 µM, first compound 0.00999 µM",103%
same,"viability, T/C",[3],65.3%
same,"viability, T/C","second compound 0.1 µM, first compound 0.0999 µM",54.3%
same,"viability, T/C",[4],46.2%
same,"viability, T/C","second compound 0.316 µM, first compound 0.000999 µM",94.5%
same,"viability, T/C","second compound 0.316 µM, first compound 0.00316 µM",97.9%
same,"viability, T/C","second compound 0.316 µM, first compound 0.00999 µM",83.3%
same,"viability, T/C",[5],74.1%
same,"viability, T/C","second compound 0.316 µM, first compound 0.0999 µM",59.4%
same,"viability, T/C",[6],53.6%
same,"viability, T/C","second compound 1 µM, first compound 0.000999 µM",92%
same,"viability, T/C","second compound 1 µM, first compound 0.00316 µM",92.9%
same,"viability, T/C","second compound 1 µM, first compound 0.00999 µM",86.1%
same,"viability, T/C",[7],73.1%
same,"viability, T/C","second compound 1 µM, first compound 0.0999 µM",57.3%
same,"viability, T/C",[8],54.2%
same,"viability, T/C","second compound 3.16 µM, first compound 0.000999 µM",95.8%
same,"viability, T/C","second compound 3.16 µM, first compound 0.00316 µM",88.8%
same,"viability, T/C","second compound 3.16 µM, first compound 0.00999 µM",84.1%
same,"viability, T/C",[9],61.1%
same,"viability, T/C","second compound 3.16 µM, first compound 0.0999 µM",59.1%
same,"viability, T/C",[10],52.5%
same,"viability, T/C","second compound 10 µM, first compound 0.000999 µM",58.5%
same,"viability, T/C","second compound 10 µM, first compound 0.00316 µM",70.6%
same,"viability, T/C","second compound 10 µM, first compound 0.00999 µM",54.6%
same,"viability, T/C",[11],50.1%
same,"viability, T/C","second compound 10 µM, first compound 0.0999 µM",52%
same,"viability, T/C",[12],41.4%
